Source: PMC8047676 (ACS Omega, 2021)
Values after ≈ are worked out from the molar mass of the structure shown. Values joined by “and” are separate entries in the source; they are usually repeats but may differ in a detail not shown here. Equal values may be shown once.

Assays:
CHIKV [1] = settings: Vero A cells, cited from earlier work
CHIKV [2] = settings: cited from earlier work
CHIKV nsP2 protein = test: Flow cytometry of nsP2 protein expression in infected BHK-21 cells; format: cell-based, Chikungunya virus (CHIKV); settings: for numbers of cells expressing nsP2 protein reduced: flow cytometry, 24 h post treatment
CHIKV E2 protein = test: Flow cytometry of E2 protein expression in infected BHK-21 cells; format: cell-based, Chikungunya virus (CHIKV); settings: for percentages of infected cells showing E2 expression reduced: flow cytometry, 24 h post treatment
CHIKV E2 RNA = test: RT-PCR of CHIKV E2 RNA in infected BHK-21 cells; format: cell-based, Chikungunya virus (CHIKV); settings: 24 h post treatment, normalized to GAPDH
[3] = MTT cellular cytotoxicity assay; format: cell-based; settings: hamster, BHK-21 cells
[4] = test system: CHIKV prototype strain S27; test: Plaque assay of CHIKV-infected BHK-21 cells; format: cell-based, Chikungunya virus (CHIKV); settings: for plaque numbers reduced: BHK-21 cells, CHIKV S27 MOI 0.01, 24 hpi
BHK-21 cells = test: Microscopic observation of cell morphology; format: cell-based, hamster; settings: 5, 10 and 20 μM, 24 h, microscope
CHIKV nsP2 RNA = test: RT-PCR of CHIKV nsP2 RNA in infected BHK-21 cells; format: cell-based, Chikungunya virus (CHIKV); settings: 24 h post treatment, normalized to GAPDH
[5] = test system: CHIKV envelope E2 glycoprotein; test: Western blot of CHIKV E2 protein in infected BHK-21 cells; format: cell-based, Chikungunya virus (CHIKV); settings: 24 h
[6] = test system: CHIKV nonstructural protein nsP2; test: Western blot of CHIKV nsP2 protein in infected BHK-21 cells; format: cell-based, Chikungunya virus (CHIKV); settings: 24 h
[7] = ribavirin treatment, concentration not given

For `CCN(CC)CCCC(C)Nc1ccnc2cc(Cl)ccc12` (centres unmarked) [Chloroquine], the IC50 (CHIKV [1]; read-out: IC50, inhibition of CHIKV replication) is listed as 7 µM, the IC90 (CHIKV [1]; read-out: IC90, inhibition of CHIKV replication) is listed as 15 µM and the “IC50, antiviral effects in vitro” value (CHIKV [2]) is listed as 1.1 µg/mL (≈ 3.44 µM).

For `Cn1c(=O)c(C(=O)CCN2CCOCC2)c(O)c2ccccc21` [QVIR, 4-hydroxy-1-methyl-3-(3-morpholinopropanoyl)quinoline-2(1H)-one], the “numbers of cells expressing nsP2 protein reduced” value (CHIKV nsP2 protein; 5 μM) was 43.25%, the “numbers of cells expressing nsP2 protein reduced” value (CHIKV nsP2 protein; 10 μM) was 54.04% and the “numbers of cells expressing nsP2 protein reduced” value (CHIKV nsP2 protein; 20 μM) was 71.48%. The “percentages of infected cells showing E2 expression reduced” value (CHIKV E2 protein; 5 μM) was 44.60%, the “percentages of infected cells showing E2 expression reduced” value (CHIKV E2 protein; 10 μM) was 51.22% and the “percentages of infected cells showing E2 expression reduced” value (CHIKV E2 protein; 20 μM) was 67.7%. For the same compound, the “RNA levels of E2 diminished” value (CHIKV E2 RNA; 5 μM) was 39%, the “RNA levels of E2 diminished” value (CHIKV E2 RNA; 10 μM) was 55.6% and the “RNA levels of E2 diminished” value (CHIKV E2 RNA; 20 μM) was 74%. For the same compound, the CC50 at 24 h [3] was > 200 µM, the plaque numbers reduced ([4]; 5 μM) was 82.62% and the plaque numbers reduced ([4]; 10 μM) was 97.86%. For the same compound, the plaque numbers reduced ([4]; 20 μM) was 99.61%, the EC50 ([4]; Chikungunya virus, BHK-21, 24 h, read-out: EC50 (50% effective concentration) against CHIKV infection) was 2.2 ± 0.49 µM and the “morphological changes of BHK-21 cells” value (BHK-21 cells) was “inertness”. For the same compound, the “RNA levels of nsP2 decreased” value (CHIKV nsP2 RNA; 5 μM) was 52.1%, the “RNA levels of nsP2 decreased” value (CHIKV nsP2 RNA; 10 μM) was 67.5% and the “RNA levels of nsP2 decreased” value (CHIKV nsP2 RNA; 20 μM) was 84% and 84.1%. The “E2 protein levels suppressed” value ([5]; 5 μM) was 22.8%, the “E2 protein levels suppressed” value ([5]; 10 μM) was 45.8% and the “E2 protein levels suppressed” value ([5]; 20 μM) was 53.9%. For the same compound, the “protein levels of nsP2 reduced” value ([6]; 10 μM) was 63.4% and the “protein levels of nsP2 reduced” value ([6]; 20 μM) was 69.9%.

In the case of `NC(=O)c1ncn([C@@H]2O[C@H](CO)[C@@H](O)[C@H]2O)n1` [Ribavirin, reference compound], the “viral nsP2 protein level by flow cytometry” value (CHIKV nsP2 protein; [7]) is reported as “decreased”, the “viral E2 protein level by flow cytometry” value (CHIKV E2 protein; [7]) is reported as “decreased” and the “RNA levels of E2 diminished” value (CHIKV E2 RNA; 10 μM) is reported as 75.8%. The plaque numbers reduced ([4]; 10 μM) was 99.15% and the “RNA levels of nsP2 decreased” value (CHIKV nsP2 RNA; 10 μM) was 82.7%.

In the case of `C=C[C@H]1C[N@@]2CC[C@H]1C[C@H]2[C@H](O)c1ccnc2ccc(OC)cc12` [quinine], the “IC50, inhibits CHIKV in vitro” value (CHIKV [2]) is listed as 0.1 µg/mL (≈ 0.308 µM).
